Data published in paper PMC6888004 (International Journal of Molecular Sciences, 2019).
Like-named read-outs stand apart in the source and are kept apart here.

Key:
[1] = biological target: T1, recombinant c-Met kinase (Homo sapiens, UniProt P08581); test: In vitro inhibition of recombinant c-Met kinase (ADP-Glo); assay type: biochemical; settings: recombinant kinase assay, ATP 3.1 µM
T1 construct: purchased ProQinase 0171-0000-1
Experimental: Reaction buffer was prepared according to ProQinase’s recommendation [60 mM HEPES, 3 mM MgCl2, 3 mM MnCl2, 3 µM Na3VO4, 1.2 mM DTT (dithiothreitol), and 50 µg/mL PEG20,000, (reagents were obtained from Merck Millipore)]. Enzyme activity was assayed in 384 well, low-volume white microtiter plates (Corning®, Merck Millipore, cat. no.: CLS4513-50EA). Compounds were preincubated with c-Met kinase for 30 min at room temperature and reactions were started by adding the substrate–ATP mixture. Reaction time was 60 min at room temperature. Enzyme reaction was stopped using ADP-Glo™ Kinase Assay (Promega, cat. no.: V6930) according to the manufacturer’s instructions (40 min incubation with ADP-Glo™ Reagent, 30 min incubation with Kinase detection reagent at 25 °C). All measurements were performed using a Synergy 2 Multi-Mode Reader (BioTek, Winooski, VT, USA). Raw enzyme activity values were converted to relative activity data using positive and negative controls.

[2] = test system: primary human skin fibroblast cells; test: CellTiter-Glo cell viability assay on primary skin fibroblast cells; assay type: cell-based; settings: GnRHR-negative cells, 72 h treatment, read-out: IC50, viability inhibition on primary human skin fibroblast cells
Experimental: Primary human skin fibroblast cells (fibroblast cells) were gifted by the Institute of Genomic Medicine and Rare Disorders, Semmelweis University (Budapest, Hungary). Fibroblast cells were cultured in Dulbecco’s modified Eagle’s medium (DMEM) (Thermo Fisher Scientific, cat. no.: 41965039) supplemented with 10% FBS (Thermo Fisher Scientific), 1% penicillin–streptomycin (Thermo Fisher Scientific, cat. no.: 15070063) and 1% MEM Non-Essential Amino Acids Solution (Thermo Fisher Scientific, cat. no.: 11140035). Cell cultures were grown in vitro at 37 °C, 95% air and 5% CO2 atmosphere.
(§1) Effects of the synthesized compounds on EBC-1 and fibroblast cell viability was measured via CellTiter-Glo® luminescent cell viability assay (Promega, Madison, WI, USA) according to the manufacturer’s instructions. Briefly, cells were plated at 1000 cells/well onto a flat-bottomed, white 96 well plate (BRANDplates, cat. no.: 781965). After 24 h, cells were treated for 72 h with either the desired 4-fold serial diluted compound concentrations or vehicle (0.2% DMSO) control. After the treatment, the luminescence signal was recorded using a microplate reader (BioTek Synergy 2 Multi-Mode Reader, BioTek, Winooski, VT, USA). Dose–response curves (using a non-linear regression model) were generated and IC50 values were determined using Graph Pad Prism 5.02 software (GraphPad Software, San Diego, CA, USA).

[3] = test system: c-Met; test: c-Met phosphorylation in EBC-1 cells by western blot; assay type: cell-based; settings: 6 h
Experimental: To analyze the effect of the compounds on c-Met phosphorylation, EBC-1 cells were seeded in six well plates and grown to 90% confluence. […] Cells were incubated with the compounds for 6 h at 37 °C in a CO2 incubator. After the incubation, western blot analysis was performed. To investigate GnRH-R protein level, cells were seeded in six well plates and grown to 90% confluence, then western blot analysis was applied.
Bands were visualized via Enhanced Chemiluminescence detection system (Western Lightning ECL Pro, PerkinElmer, Waltham, MA, USA, cat. no.: NEL122001EA).

[4] = Stability in EMEM cell culture medium at 37 °C (HPLC-UV); assay type: in vitro ADME; settings: for stability in cell culture medium: EMEM, 37 °C, up to 72 h
Experimental: Stock solutions of compounds in DMSO were diluted to 10 µM in complemented EMEM (Lonza). Samples were incubated for 2, 6, 24, and 72 h at 37 °C. After the incubation, acetonitrile (VWR, cat. no.: 83639.320) was added to the solutions (1:1 ratio, to achieve 50% acetonitrile content). The samples were vortexed and centrifuged (13,000× g, 10 min). Supernatants were measured by HPLC-UV. HPLC method and chromatograms are available in the Supplementary Information. Stability was calculated using the external standard method. Decay curves were generated and half-life was calculated by GraphPad Prism 5.02 software.

[5] = pH-dependent artificial membrane permeability assay (PAMPA); assay type: in vitro ADME
Experimental: An artificial-membrane-based system (BD Gentest™ Pre-Coated PAMPA plate, Corning, cat. no.: 353015) was used to determine the pH-dependent membrane permeability of the compounds. In this method, the protocol provided by the manufacturer was followed with minor modifications. Four different pH values were applied per compound. […] Stock solutions of compounds in DMSO were diluted to 100 µM in each PBS. PBS solutions were loaded into the donor wells, but the acceptor wells were filled with physiological PBS (pH = 7.4). The system was gently shaken (BioSan Thermo-Shaker PST-60HL) for 5 h at 25 °C. […] Calculation formula and the calculated data are available in the Supplementary Information, Section S4. page 11: S4. PAMPA Calculation formula: −ln(1 − CaCe) Pe = 1 1 A ∗ (Vd + Va) ∗ t Ce = (Cd ∗ Vd + Ca∗ Va)/(Vd + Va) R = 1 − Cd ∗ Vd + Ca∗ Va C0 ∗ Vd Pe = permeability (cm/s) R = mass retention (percentage loss of compound due to non-specific binding to the plastic surfaces during the permeation assay) A = membrane area (cm2) c0 = initial donor concentration ca = final acceptor concentration cd = final donor concentration ce = equilibrium concentration t = incubation time (sec) Va = acceptor volume (mL) Vd = donor volume (mL)

[6] = test system: EBC-1 NSCLC cells; test: CellTiter-Glo cell viability assay on EBC-1 cells; assay type: cell-based; settings: for IC50: CellTiter-Glo, 72 h treatment, read-out: IC50, viability inhibition on EBC-1 cells
Experimental: EBC-1 cell line was obtained from the Japanese Collection of Research Bioresources Cell Bank (JCRB, Solana Beach, CA 92075 USA) and cultured in Eagle’s minimum essential medium (EMEM) (Lonza, Basel, Switzerland, cat. no.: BE12-611F,) supplemented with 1% MycoZap (Lonza, cat. no.: VZA-2012) and 10% fetal bovine serum (FBS) (Thermo Fisher Scientific, Waltham, MA, USA, cat. no.: 10500-064).
as §1

[7] = biological target: T2, prostate cancer GnRHR (Homo sapiens, UniProt P30968); test: Radioligand competition assay, [125I]-[D-Trp6]-GnRH-I displacement, human prostate cancer membranes; settings: inhibition of [125I]-[D-Trp6]-GnRH-I binding to membranes
T2 construct: the human prostate cancer specimen was obtained from a patient at the time of initial surgical treatment; from tissue; host or cells: human prostate cancer surgical specimen, membranes
T2 sequence (P30968 1-328): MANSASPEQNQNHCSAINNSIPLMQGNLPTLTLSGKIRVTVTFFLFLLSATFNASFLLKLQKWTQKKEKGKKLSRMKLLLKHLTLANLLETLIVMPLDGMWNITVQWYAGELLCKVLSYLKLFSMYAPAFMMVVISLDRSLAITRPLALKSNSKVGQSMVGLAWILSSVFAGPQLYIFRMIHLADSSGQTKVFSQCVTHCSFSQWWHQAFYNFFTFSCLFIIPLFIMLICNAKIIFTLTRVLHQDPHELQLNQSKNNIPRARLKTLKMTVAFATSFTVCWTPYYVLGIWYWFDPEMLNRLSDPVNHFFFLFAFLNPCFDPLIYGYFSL
Experimental: (§2) The collection and use of the tissue samples for our studies were approved by the local Institutional Ethics Committee. Normal human pituitary (anterior lobe) tissue was collected at autopsy and the human prostate cancer specimen was obtained from a patient at the time of initial surgical treatment. The ligand competition assay was performed as described previously.

[8] = biological target: T3, human pituitary GnRHR (Homo sapiens, UniProt P30968); test: Radioligand competition assay, [125I]-[D-Trp6]-GnRH-I displacement, human pituitary membranes; settings: inhibition of [125I]-[D-Trp6]-GnRH-I binding to membranes
T3 construct: Normal human pituitary (anterior lobe) tissue was collected at autopsy; from tissue; host or cells: normal human pituitary (anterior lobe), autopsy tissue, membranes
T3 sequence (P30968 1-328): T2 sequence (P30968 1-328)
Experimental: as §2

[9] = test system: EBC-1 cells; test: Galectin puncta assay for lysosomal membrane permeabilization; assay type: cell-based; settings: 8 h
Experimental: EBC-1 cells were seeded on eight well Ibidi® μ-Slide microscopic slides (2 × 10^4 cells/well) and allowed to adhere for 48 h. […] Untreated (0.2% DMSO in EMEM) cells were used as a negative control. Cells were incubated with the compounds for 8 h at 37 °C in a CO2 incubator. Cells were fixed with 4% paraformaldehyde for 10 min and washed twice with PBS (Lonza). Cells were permeabilized with 0.1% (v/v) Triton X-100 PBS solution for 10 min. After blocking (5% v/v BSA in PBS), cells were incubated with anti-galectin 3 (Merck, cat. no.: SAB4501746, dilution: 1:100) and anti-galectin-1 (Santa Cruz Biotechnology, cat. no.: sc-166618, dilution: 1:100) primary antibodies overnight at 25 °C, followed by Alexa-Fluor-488-conjugated (Jackson ImmunoResearch., cat. no.: 111-545-003, dilution: 1:500) and Alexa-Fluor-594-conjugated (Jackson ImmunoResearch, cat. no.: 115-585-003, dilution: 1:250) secondary antibodies for 1 h at 25 °C. DRAQ5 (10 µM) was added to the cells for 15 min. Cells were washed three times with PBS and a few drops of mounting media (Merck Millipore) were added. Images of cells were acquired with a confocal laser microscope (Zeiss Confocal LSM 710). [Objective: Plan-Apochromat 63x/1.40 Oil DIC M27. Pinhole: 1.01 AU. Laser wavelength: 488 nm, 543 nm and 633 nm. Detection wavelength: 504–539 nm; 602–651 nm; 694–758 nm)].

T1 sequence (P08581 25-1390): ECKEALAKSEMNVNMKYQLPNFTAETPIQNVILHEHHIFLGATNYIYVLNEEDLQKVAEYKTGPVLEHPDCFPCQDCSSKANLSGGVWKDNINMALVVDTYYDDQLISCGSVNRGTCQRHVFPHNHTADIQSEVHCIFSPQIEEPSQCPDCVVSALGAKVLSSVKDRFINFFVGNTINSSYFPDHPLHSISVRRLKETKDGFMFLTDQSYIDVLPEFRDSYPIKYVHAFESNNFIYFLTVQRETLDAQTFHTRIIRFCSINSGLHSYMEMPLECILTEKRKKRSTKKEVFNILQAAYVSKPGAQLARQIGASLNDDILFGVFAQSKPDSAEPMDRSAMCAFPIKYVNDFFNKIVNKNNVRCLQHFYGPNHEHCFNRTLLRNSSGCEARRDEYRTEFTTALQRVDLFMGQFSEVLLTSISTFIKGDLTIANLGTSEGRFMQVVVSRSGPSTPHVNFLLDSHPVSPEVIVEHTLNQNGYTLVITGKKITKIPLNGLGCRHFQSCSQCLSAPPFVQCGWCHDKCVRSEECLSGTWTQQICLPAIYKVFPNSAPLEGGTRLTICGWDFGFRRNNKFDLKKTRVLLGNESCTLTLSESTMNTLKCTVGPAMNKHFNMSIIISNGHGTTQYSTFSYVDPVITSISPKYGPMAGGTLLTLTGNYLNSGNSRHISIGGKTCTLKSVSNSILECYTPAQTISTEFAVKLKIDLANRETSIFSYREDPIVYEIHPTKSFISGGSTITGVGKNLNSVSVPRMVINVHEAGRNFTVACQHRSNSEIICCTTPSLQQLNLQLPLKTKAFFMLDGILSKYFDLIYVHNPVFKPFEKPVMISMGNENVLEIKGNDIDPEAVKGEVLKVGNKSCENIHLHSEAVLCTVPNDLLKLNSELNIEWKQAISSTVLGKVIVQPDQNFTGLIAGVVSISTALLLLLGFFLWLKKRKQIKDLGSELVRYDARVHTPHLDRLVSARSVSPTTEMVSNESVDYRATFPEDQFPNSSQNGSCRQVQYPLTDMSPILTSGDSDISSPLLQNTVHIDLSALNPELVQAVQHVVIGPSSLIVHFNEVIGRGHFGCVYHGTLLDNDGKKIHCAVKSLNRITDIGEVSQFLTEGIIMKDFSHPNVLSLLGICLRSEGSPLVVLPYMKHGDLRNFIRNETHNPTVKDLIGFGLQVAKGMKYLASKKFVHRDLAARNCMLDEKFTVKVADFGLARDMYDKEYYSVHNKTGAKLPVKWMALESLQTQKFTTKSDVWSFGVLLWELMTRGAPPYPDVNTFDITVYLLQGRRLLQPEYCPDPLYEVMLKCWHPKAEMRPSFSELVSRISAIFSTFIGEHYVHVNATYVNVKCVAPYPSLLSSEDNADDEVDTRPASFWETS

| stability in cell culture medium [4] | SMILES | IC50 [1] [nM] | IC50 ([2]; Homo sapiens, Skin fibroblast) [nM] | inhibition of c-Met phosphorylation in EBC-1 cells ([3]; 100 nM) | IC50 ([6]; Homo sapiens, EBC-1) [nM] | IC50 [7] [nM] | IC50 [8] [nM] | also measured |
| --- | --- | --- | --- | --- | --- | --- | --- | --- |
| stable | CC(Oc1cc(-c2cnn(C3CCN(CCO)CC3)c2)cnc1N)c1c(Cl)ccc(F)c1Cl (centres unmarked) [MJ55*] | 39 | 2600 | completely inhibited | 23 |  |  | PAMPA permeability ([5]; early endosome-/lysosome-like pH (pH = 6.0 and 4.8)): near zero |
| stable | CC(C)C[C@H](NC(=O)[C@@H](CCCCN)NC(=O)[C@H](Cc1ccc(O)cc1)NC(=O)[C@H](CO)NC(=O)[C@H](Cc1c[nH]c2ccccc12)NC(=O)[C@H](Cc1cnc[nH]1)NC(=O)[C@@H]1CCC(=O)N1)C(=O)N[C@@H](CCCNC(=N)N)C(=O)N1CCC[C@H]1C(=O)NCC(N)=O [[D-Lys^6]–GnRH-I, reference compound] |  |  |  |  |  |  |  |
|  | CC(C)C[C@H](NC(=O)[C@@H](CCCCNC(=O)CCCC(=O)N1CCC(n2cc(-c3cnc(N)c(OC(C)c4c(Cl)ccc(F)c4Cl)c3)cn2)CC1)NC(=O)[C@H](Cc1ccc(O)cc1)NC(=O)[C@H](CO)NC(=O)[C@H](Cc1c[nH]c2ccccc12)NC(=O)[C@H](Cc1c[nH]cn1)NC(=O)[C@@H]1CCC(=O)N1)C(=O)N[C@@H](CCCNC(=N)N)C(=O)N1CCC[C@H]1C(=O)NCC(N)=O (mixture of isomers) [[D-Lys^6(crizotinib*)]–GnRH-I] | 163 |  | no significant inhibitory effect |  | 39.5 ± 1.7 | 34.6 ± 4.2 | inhibition of c-Met phosphorylation in EBC-1 cells ([3]; 1 µM): moderate; inhibition of c-Met phosphorylation in EBC-1 cells ([3]; 10 µM): abolished; PAMPA membrane permeability ([5]; PAMPA, pH 4.8): not to be membrane-permeable; viability inhibition effect on EBC-1 cells ([6]; highest 10 µM concentration): only a moderate effect; viability inhibition effect on EBC-1 cells ([6]; submicromolar range): did not show any significant effect; galectin puncta formation ([9]; 0.1 µM): negligable; galectin puncta formation ([9]; 1 µM): clearly detectable; galectin puncta formation ([9]; 10 µM and 100 µM): more and more significant |
|  | Cn1c(=O)c2c(ncn2C)n(C)c1=O [caffeine, reference compound] |  |  |  |  |  |  | PAMPA permeability over the investigated pH range ([5]; PAMPA): remained constant |
|  | CC(C)C[C@H](NC(=O)[C@@H](CCCCNC(=O)CCCC(=O)OCCN1CCC(n2cc(-c3cnc(N)c(OC(C)c4c(Cl)ccc(F)c4Cl)c3)cn2)CC1)NC(=O)[C@H](Cc1ccc(O)cc1)NC(=O)[C@H](CO)NC(=O)[C@H](Cc1c[nH]c2ccccc12)NC(=O)[C@H](Cc1c[nH]cn1)NC(=O)[C@@H]1CCC(=O)N1)C(=O)N[C@@H](CCCNC(=N)N)C(=O)N1CCC[C@H]1C(=O)NCC(N)=O (stereo partly drawn) [[D-Lys^6(MJ55*)]–GnRH-I] | ~147 |  | blocked c-Met phosphorylation |  | 29.7 ± 3.1 | 21.7 ± 1.4 | IC50 [2]: 3000 nM; half-life ([4]; half-life of the ester bond / conjugate in EMEM): ~8 h; IC50 [6]: 90 nM |
|  | C[C@@H](Oc1cc(-c2cnn(C3CCNCC3)c2)cnc1N)c1c(Cl)ccc(F)c1Cl [crizotinib*] |  | 2600 |  | 28 |  |  |  |
